This is an account of results in patent US20150209379A1, “TREATMENT OF PROSTATE CANCER AND HEMATOLOGIC NEOPLASMS” (THOMAS JEFFERSON UNIVERSITY, priority 2012, published 2015).

The test system of experiment [1] is Stat5a/b. Put plainly: Constitutive Stat5a/b phosphorylation in K562 cells (Western blot). It is filed as cell-based, human. The protocol: Exponentially growing K562 cells were treated with 5 μM Compound 1, Compound 2 or control for 3 h after which the cells were harvested. Cell pellets were solubilized in lysis buffer [10 mM Tris-HCl (pH 7.6), 5 mM EDTA, 50 mM sodium chloride, 30 mM sodium pyrophosphate, 50 mM sodium fluoride, 1 mM sodium orthovanadate, 1% Triton X-100, 1 mM phenylmethylsulfonyl fluoride, 5 μg/mlaprotinin, 1 μg/ml pepstatin A, and 2 μg/ml leupeptin], rotated end-over-end at 4° C. for 60 min, and insoluble material was pelleted at 12,000×g for 30 min at 4° C. The protein concentrations of clarified cell lysates were determined by simplified Bradford method (Bio-Rad Laboratories, Hercules, Calif.). Western blotting of the lysates was carried out using, as primary antibodies, the following antibodies at the following concentrations: anti-phosphotyrosine-Stat5a/b (Y694/Y699) mAb (1 μg/ml, Advantex BioReagents, Conroe, Tex.) or anti-Stat5ab mAb (1:250; BD Biosciences, San Jose, Calif.), anti-human Abl mAb (Calbiochem).
(§1) Exponentially growing K562 cells were treated with NBPP for 3 h or 6 h after which the cells were harvested. Exponentially growing K562 cells or imatinib-resistant K562 cells were treated with NBPP for 6 h or 16 h after which the cells were harvested. Cell pellets were solubilized in lysis buffer [10 mM Tris-HCl (pH 7.6), 5 mM EDTA, 50 mM sodium chloride, 30 mM sodium pyrophosphate, 50 mM sodium fluoride, 1 mM sodium orthovanadate, 1% Triton X-100, 1 mM phenylmethylsulfonyl fluoride, 5 μg/ml aprotinin, 1 μg/ml pepstatin A, and 2 μg/ml leupeptin], rotated end-over-end at 4° C. for 60 min, and insoluble material was pelleted at 12,000×g for 30 min at 4° C. The protein concentrations of clarified cell lysates were determined by simplified Bradford method (Bio-Rad Laboratories, Hercules, Calif.). […]

The subject of experiment [2] is Stat5a/b. Description: Constitutive Stat5a/b phosphorylation in imatinib-sensitive KCL22S cells (Western blot). The experiment is classed as cell-based, human. The protocol:
(§2) Exponentially growing KCL22S and KCL22R cells were treated with Compound 1 or Compound 2 at various concentrations for 3 h and 16 h (Compound 1) or 3 h, 6 h or 16 h (Compound 2) after which the cells were harvested. Cell pellets were solubilized in lysis buffer [10 mM Tris-HCl (pH 7.6), 5 mM EDTA, 50 mM sodium chloride, 30 mM sodium pyrophosphate, 50 mM sodium fluoride, 1 mM sodium orthovanadate, 1% Triton X-100, 1 mM phenylmethylsulfonyl fluoride, 5 μg/ml aprotinin, 1 μg/ml pepstatin A, and 2 μg/ml leupeptin], rotated end-over-end at 4° C. for 60 min, and insoluble material was pelleted at 12,000×g for 30 min at 4° C. The protein concentrations of clarified cell lysates were determined by simplified Bradford method (Bio-Rad Laboratories, Hercules, Calif.). Western blotting of the lysates was carried out using, as primary antibodies, the following antibodies at the following concentrations: anti-phosphotyrosine-Stat5a/b (Y694/Y699) mAb (1 μg/ml, Advantex BioReagents, Conroe, Tex.), anti-Stat5ab mAb (1:250; BD Biosciences, San Jose, Calif.) or anti-actin pAb (Sigma). Anti-actin was included as a control.
as §1

For experiment [3], the system named is Stat5a/b. Put plainly: Constitutive Stat5a/b phosphorylation in imatinib-resistant KCL22R cells (Western blot). It is filed as cell-based, human. The protocol: as §2, §1
Experiment [4] deals with K562 human chronic myeloid leukemia cells. Description: Cell viability, MTS assay, K562 chronic myeloid leukemia cells. To be noted: K562, 72 h, 3.1, 6.3, 12.5, 25 and 50 μM, vs control compound C5. The experiment is classed as cell-based. The method, then: Exponentially growing K562 human chronic myeloid leukemia cells were treated with Compound 1, Compound 2 or the control compound C5 for 72 h at 3.1, 6.3. 12.5, 25 and 50 μM concentrations. The cell viability was assessed by MTS (3-(4,5-dimethylthiazolyl-2)-2,5-diphenyl-tetrazolium bromide) metabolic activity assay (CellTiter 96® AQueous Assay kit).
(§3) Exponentially growing CWR22Rv1 prostate cancer cells, K562 leukemia cells and imatinib-sensitive KCL22S and imatinib-resistant KCL22R chronic myeloid leukemia cells were treated with NBPP or the control compound C5 for 72 h at 3.1, 6.3. 12.5, 25 and 50 μM concentrations. The cell viability was assessed by MTS (3-(4,5-dimethylthiazolyl-2)-2,5-diphenyl-tetrazolium bromide) metabolic activity assay (CellTiter 96® AQueous Assay kit).

The test system of experiment [5] is KCL22 human chronic myeloid leukemia cells. Put plainly: Cell viability, MTS assay, KCL22 (imatinib-sensitive) chronic myeloid leukemia cells. The experiment is classed as cell-based. To be noted: KCL22 (KCL22S), 72 h, 3.1, 6.3, 12.5, 25 and 50 μM, vs control compound C5. The method, then:
Exponentially growing KCL22 human chronic myeloid leukemia cells were treated with Compound 1, Compound 2 or the control compound C5 for 72 h at 3.1, 6.3. 12.5, 25 and 50 μM concentrations. The cell viability was assessed by MTS (3-(4,5-dimethylthiazolyl-2)-2,5-diphenyl-tetrazolium bromide) metabolic activity assay (CellTiter 96® AQueous Assay kit).
as §3

The test system of experiment [6] is KCL22R imatinib-resistant human chronic myeloid leukemia cells. Put plainly: Cell viability, MTS assay, KCL22R imatinib-resistant chronic myeloid leukemia cells. It is filed as cell-based. To be noted: 72 h, 3.1, 6.3, 12.5, 25 and 50 μM, vs control compound C5. The protocol: Exponentially growing KCL22R imatinib-resistant human chronic myeloid leukemia cells were treated with Compound 1, Compound 2 or the control compound C5 for 72 h at 3.1, 6.3. 12.5, 25 and 50 μM concentrations. The cell viability was assessed by MTS (3-(4,5-dimethylthiazolyl-2)-2,5-diphenyl-tetrazolium bromide) metabolic activity assay (CellTiter 96® AQueous Assay kit).
as §3

The mark [7] stands for this setting: KCL22S, various concentrations, 3 h and 16 h (Compound 1) or 3 h, 6 h or 16 h (Compound 2).
Setting [8] is: KCL22R, various concentrations, 3 h and 16 h (Compound 1) or 3 h, 6 h or 16 h (Compound 2).

SMILES strings stand for the structures.

`OC[C@H]1O[C@@H](n2cnc3c(N4CCc5ccccc5C4)ncnc32)[C@H](O)[C@@H]1O` [Compound 1, (2R,3R,4S,5R)-2-(6-(3,4-Dihydroisoquinolin-2(1H)-yl)-9H-purin-9-yl)-5-(hydroxymethyl)tetrahydrofuran-3,4-diol]: the “effect on phosphorylation of Stat5” value in the experiment with Stat5a/b [1] (K562, 5 μM, 3 h) is recorded as “block phosphorylation of Stat5”; with Stat5a/b [2] (setting [7]), “block phosphorylation of Stat5”; with Stat5a/b [3] (setting [8]), “block phosphorylation of Stat5”. The “number of viable cells” value is “decreased the number of viable leukemic cells compared to the control compound” in experiment [4], “decreased the number of viable leukemic cancer cells compared to the control compound” in experiment [5] and “decreased the number of viable leukemic cancer cells compared to the control compound” in experiment [6].

For `OC[C@H]1O[C@@H](n2cnc3c(NNc4ccccc4)ncnc32)[C@H](O)[C@@H]1O` [Compound 2, (2R,3S,4R,5R)-2-(hydroxymethyl)-5-(6-(2-phenylhydrazinyl)-9H-purin-9-yl)tetrahydrofuran-3,4-diol], the “effect on phosphorylation of Stat5” value in the experiment with Stat5a/b [1] (K562, 5 μM, 3 h) is on record as “block phosphorylation of Stat5”; in the experiment on Stat5a/b [2] (setting [7]), “block phosphorylation of Stat5”; with Stat5a/b [3] (setting [8]), “block phosphorylation of Stat5”. Besides, the “number of viable cells” value was “decreased the number of viable leukemic cells compared to the control compound” in experiment [4], “decreased the number of viable leukemic cancer cells compared to the control compound” in experiment [5] and “decreased the number of viable leukemic cancer cells compared to the control compound” in experiment [6].

In the case of `OC[C@H]1O[C@@H](n2ccc3c(NCc4ccccc4)ncnc32)[C@H](O)[C@@H]1O` [NBPP, N-(phenylmethyl)-7-β-D-ribofuranosyl-7H-pyrrolo[2,3-d]pyrimidin-4-amine], the “effect on phosphorylation of Stat5” value is “inhibited phosphorylation of Stat5” with Stat5a/b [1] (K562, indicated concentrations, 3 or 6 hours); “inhibits phosphorylation of Stat5” with Stat5a/b [2] (KCL22S imatinib-sensitive, 6 h or 16 h); “inhibits phosphorylation of Stat5” in the experiment on Stat5a/b [3] (KCL22R imatinib-resistant, 6 h or 16 h). Besides, the “number of viable cells” value in experiment [4] is “decreased the number of viable K562 cells”; in experiment [5], “decreased the number of viable KCL22S cells”; in experiment [6], “decreased the number of viable KCL22R cells”.
